# Measurements reported in patent publication US20250230193A1, “CYCLIC COMPOUND HAVING SELECTIVE KRAS INHIBITORY EFFECT ON HRAS AND NRAS” (CHUGAI SEIYAKU KABUSHIKI KAISHA, priority 2022, published 2025).
# Columns and labels:
# [1] = biological target: GDP-bound NRAS wild-type protein (Homo sapiens, UniProt P01111); assay: Binding to NRAS by surface plasmon resonance (SPR), Single Cycle Kinetics; details: SPR, GDP-bound NRAS wild-type vs GDP-bound KRAS wild-type
# [2] = biological target: GDP-bound HRAS wild-type protein (Homo sapiens, UniProt P01112); assay: Binding to HRAS by surface plasmon resonance (SPR), Single Cycle Kinetics; details: SPR, GDP-bound HRAS wild-type vs GDP-bound KRAS wild-type
# Sequence of GDP-bound HRAS wild-type protein (P01112 whole entry): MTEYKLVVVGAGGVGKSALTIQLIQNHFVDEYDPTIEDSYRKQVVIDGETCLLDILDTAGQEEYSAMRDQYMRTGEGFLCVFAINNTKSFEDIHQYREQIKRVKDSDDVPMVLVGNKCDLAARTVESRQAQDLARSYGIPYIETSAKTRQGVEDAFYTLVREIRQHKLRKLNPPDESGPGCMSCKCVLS
# Sequence of GDP-bound NRAS wild-type protein (P01111 whole entry): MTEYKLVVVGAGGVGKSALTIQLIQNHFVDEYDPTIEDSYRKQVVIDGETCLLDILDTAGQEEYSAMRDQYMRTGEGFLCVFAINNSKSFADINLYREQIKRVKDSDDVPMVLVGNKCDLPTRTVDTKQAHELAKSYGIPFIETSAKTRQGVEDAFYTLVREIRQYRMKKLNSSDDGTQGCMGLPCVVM
SMILES,NRAS/KRAS (ratio of KD value with respect to NRAS to KD value with respect to KRAS) [1],HRAS/KRAS (ratio of KD value with respect to HRAS to KD value with respect to KRAS) [2]
CCC[C@H]1C(=O)N[C@@H]([C@@H](C)CC)C(=O)N(C)CC(=O)N(C)[C@H]2C/C=C\CCN(C2=O)[C@@H](Cc2ccc(C)cc2)C(=O)N(C)CC(=O)N[C@@H](CCc2ccc(C(F)(F)F)c(Cl)c2)C(=O)N2C[C@H](CC)C[C@H]2C(=O)NC2(CCC2)C(=O)N(C)[C@@H](C2CCCC2)C(=O)N(C)[C@H](C(=O)N(C)C)CC(=O)N1C [PP2237],A (a compound having 10 or more and less than 20 is denoted as A),A (a compound having 10 or more and less than 20 is denoted as A)
CCC[C@@H]1C[C@H]2C(=O)NC3(CCC3)C(=O)N(C)[C@@H](C3CCCC3)C(=O)N(C)[C@H](C(=O)N(C)C)CC(=O)N(C)[C@@H](CCC)C(=O)N[C@@H]([C@@H](C)CC)C(=O)N(C)CC(=O)N(C)[C@H]3C/C=C\CCN(C3=O)[C@@H](Cc3ccc(C)cc3)C(=O)N(C)CC(=O)N[C@@H](CCc3ccc(C(F)(F)F)c(Cl)c3)C(=O)N2C1 [PP2238],A (a compound having 10 or more and less than 20 is denoted as A),A (a compound having 10 or more and less than 20 is denoted as A)
CCC[C@H]1C(=O)N[C@@H](C2CCC2)C(=O)N(C)CC(=O)N(C)[C@H]2C/C=C\CCN(C2=O)[C@@H](Cc2ccc(C)cc2)C(=O)N(C)CC(=O)N[C@@H](CCc2ccc(C(F)(F)F)c(F)c2)C(=O)N2C[C@H](OCC)C[C@H]2C(=O)NC2(CC(C)(C)C2)C(=O)N(C)[C@@H](C2CCC2)C(=O)N(C)[C@H](C(=O)N(C)C)CC(=O)N1C [PP2242],A (a compound having 10 or more and less than 20 is denoted as A),A (a compound having 10 or more and less than 20 is denoted as A)
CCO[C@@H]1C[C@H]2C(=O)NC3(CC(C)(C)C3)C(=O)N(C)[C@@H](C3CCCC3)C(=O)N(C)[C@H](C(=O)N(C)CC)CC(=O)N(C)[C@H]3CCCCCc4ccc(cc4)C[C@@H](C(=O)N(C)CC(=O)N[C@@H](CCc4ccc(C(F)(F)F)c(OC)c4)C(=O)N2C1)N1CC/C=C\C[C@@H](C1=O)N(C)C(=O)CN(C)C(=O)[C@H]([C@@H](C)CC)NC3=O [PP2259],A (a compound having 10 or more and less than 20 is denoted as A),B (a compound having 3 or more and less than 10 is denoted as B)
"CCO[C@@H]1C[C@H]2C(=O)NC3(CC(C)(C)C3)C(=O)N(C)[C@@H](C3CCCC3)C(=O)N(C)[C@H](C(=O)N(C)CC)CC(=O)N(C)[C@H]3CCCCCCc4ccc(cc4)C[C@@H](C(=O)N(C)CC(=O)N[C@@H](CCc4ccc(C(F)(F)F)c(OC)c4)C(=O)N2C1)N1CC/C=C\C[C@@H](C1=O)N(C)C(=O)CN(C)C(=O)[C@H]([C@@H](C)CC)NC3=O [PP2260, (1S,7S,11R,13S,19S,22S,26S,29S,35S,37Z)-19-cyclopentyl-11-ethoxy-N-ethyl-7-[2-[3-methoxy-4-(trifluoromethyl)phenyl]ethyl]-N,3,3′,3′,18,21,25,31,34-nonamethyl-29-[(1S)-1-methylpropyl]-2,5,8,14,17,20,24,27,30,33,55-undecaoxo-spiro[3,6,9,15,18,21,25,28,31,34,41-undecazapentacyclo[24.15.11.2^43,46.1^35,41.0^9,13]pentapentaconta-37,43(54),44,46(53)-tetraene-16,1′-cyclobutane]-22-carboxamide]",A (a compound having 10 or more and less than 20 is denoted as A),A (a compound having 10 or more and less than 20 is denoted as A)
